Assay results: PMC9737137, “The Mitochondrial Protein MitoNEET as a Probe for the Allostery of Glutamate Dehydrogenase” (Molecules, 2022)

Experiments:
[1] = target: T1, glutamate dehydrogenase (GDH) (Bos taurus, UniProt P00366); assay: GDH kinetics, NAD(P)H formation at […] nm; fraction of activity; assay type: biochemical
T1 construct: gene GLUD1

mitoNEET = target: T2, mitoNEET (Homo sapiens, UniProt Q9NZ45); assay: radioligand competition assay (SPA nickel beads); assay type: binding
T2 construct: gene CISD1
T2 sequence (Q9NZ45 2-108): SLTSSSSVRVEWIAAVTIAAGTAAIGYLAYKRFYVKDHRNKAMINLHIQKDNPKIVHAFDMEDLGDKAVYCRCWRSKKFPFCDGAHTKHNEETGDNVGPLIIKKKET

[2] = target: T1, glutamate dehydrogenase (GDH); assay: GDH kinetics, NAD(P)H formation at […] nm; fraction of activity with NAD added first; assay type: biochemical
[3] = target: T1, glutamate dehydrogenase (GDH); assay: GDH kinetics, NAD(P)H formation at […] nm; fraction of activity (Figure 1C); assay type: biochemical
[4] = target: T1, glutamate dehydrogenase (GDH); assay: GDH kinetics, NAD(P)H formation at […] nm; percent activation with NADP; assay type: biochemical
[5] = target: T1, glutamate dehydrogenase (GDH); assay: GDH kinetics, NAD(P)H formation at […] nm; percent activation (Figure 4B); assay type: biochemical

T1 sequence (P00366 58-558, one chain of several): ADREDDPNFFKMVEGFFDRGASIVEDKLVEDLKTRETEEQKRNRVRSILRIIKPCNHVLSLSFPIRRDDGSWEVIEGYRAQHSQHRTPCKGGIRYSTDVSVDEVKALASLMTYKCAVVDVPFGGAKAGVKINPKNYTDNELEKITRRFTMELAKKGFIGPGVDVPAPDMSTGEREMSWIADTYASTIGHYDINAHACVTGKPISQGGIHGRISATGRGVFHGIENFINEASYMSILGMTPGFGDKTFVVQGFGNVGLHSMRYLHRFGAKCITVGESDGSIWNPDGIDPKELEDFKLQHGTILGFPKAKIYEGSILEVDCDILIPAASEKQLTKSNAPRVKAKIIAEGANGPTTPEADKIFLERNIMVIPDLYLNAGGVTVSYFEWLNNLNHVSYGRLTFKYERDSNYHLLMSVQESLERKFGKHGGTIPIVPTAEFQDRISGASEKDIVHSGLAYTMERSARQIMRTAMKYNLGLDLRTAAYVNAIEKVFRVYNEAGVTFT

CCCCCCCCCCCCCCCC(=O)SCCNC(=O)CCNC(=O)[C@H](O)C(C)(C)COP(=O)(O)OP(=O)(O)OC[C@H]1O[C@@H](n2cnc3c(N)ncnc32)[C@H](O)[C@@H]1OP(=O)(O)O [palmitoyl-CoA]
GDH kinetics, NAD(P)H formation at 340 nm; fraction of activity [1]: 0.44 ± 0.04 fraction of activity | IC50 (mitoNEET): 304 nM

O=C(O[C@@H]1Cc2c(O)cc(O)cc2O[C@@H]1c1cc(O)c(O)c(O)c1)c1cc(O)c(O)c(O)c1 [EGCG]
GDH kinetics, NAD(P)H formation at 340 nm; fraction of activity with NAD added f [2]: 0.35 ± 0.02 fraction of activity

Nc1nc2c(ncn2[C@@H]2O[C@H](COP(=O)(O)OP(=O)(O)OP(=O)(O)O)[C@@H](O)[C@H]2O)c(=O)[nH]1 [GTP]
GDH kinetics, NAD(P)H formation at 340 nm; fraction of activity (Figure 1C) [3]: under only one assay condition the rescue of GDH activity from GTP inhibition by mitoNEET could be observed

Nc1ncnc2c1ncn2[C@@H]1O[C@H](COP(=O)(O)OP(=O)(O)O)[C@@H](O)[C@H]1O [ADP]
% activation [4]: 67 % activation

CC(C)C[C@H](N)C(=O)O [leucine]
GDH kinetics, NAD(P)H formation at 340 nm; percent activation (Figure 4B) [5]: addition of mitoNEET after the addition of leucine gave no impact in percent activation over the addition of leucine alone
